From patent publication US20210247385A1, “METHODS FOR ASSESSING TRANSENDOTHELIAL BARRIER INTEGRITY” (Hoffmann-La Roche Inc., priority 2018, published 2021)
Blank lines part the entries; values can stand above or below the compound they belong to.

Columns and labels:
hPSC-ECs (GFP+ cells) = assay: Electric cell-substrate impedance sensing (ECIS) of transendothelial barrier integrity; type: cell-based, human; conditions: for effect on EC barrier in co-application with VEGFA (functional barrier assays): under both conditions, FIG. 5
Method: Electric cell-substrate impedance sensing. TBI was detected in real time using the ECIS® Z-theta system (Applied Biophysics, McAlister G C, Nusinow D P, Jedrychowski M P, Wuhr M, Huttlin E L, Erickson B K, et al. Analytical chemistry. 2014; 86(14):7150-8.) using 96 well array plates (96widf, Applied Biophysics) at 250 Hz frequency. Plates were coated with 100 μL of fibronectin (25 μg/mL; for 30 min at RT), fibronectin was replaced by complete media and electrodes were stabilized for 1 h on the system. Afterwards, media was removed and hPSC-ECs were seeded (10,000 cells per well). Cells were left for 2 days to reach full confluency and then treated with compounds with or without VEGFA (50 ng/mL). All the treatments were performed in triplicates.

TGFBR2 [1] = target: T1, TGFBR2 (Homo sapiens, UniProt P37173); assay: Kd determination (DiscoveRx) TGFBR2; type: binding; conditions: data not shown
T1 construct: purchased DiscoveRx
Method: (§1) Competitive protein kinase binding assays. Kinome scan (468 kinases) was performed by scanMAX (DiscoveRx) at 1 μM. Kinome scan procedure has been followed as described in (Bemas M J, Cardoso F L, Daley S K, Weinand M E, Campos A R, Ferreira A J, et al. Nature protocols. 2010; 5(7):1265-72.). Kd determination for ACVR1B, TGFRB1, TGFBR2 and KDR has been done in duplicates with 11-point 3-fold serial dilution starting from 30 μM (DiscoveRx). All the compounds were dissolved in DMSO. Binding constants (Kds) were calculated with a standard dose-response curve using the Hill equation and the The Hill Slope was set to −1. Curves were fitted using a non-linear least square fit with the Levenberg-Marquardt algorithm.

TGFBR2 [2] = target: T1, TGFBR2; assay: Kinome scan (scanMAX, competitive protein kinase binding) TGFBR2; conditions: 1 μM; data not shown
Method: as §1

BMPR1B = target: T2, BMPR1B (Homo sapiens, UniProt O00238); assay: Kinome scan (scanMAX, competitive protein kinase binding) BMPR1B; conditions: 1 μM; data not shown
T2 construct: purchased DiscoveRx
Method: as §1

hPSC-EC = system: hPSC-EC
Method: RNA isolation. RNA isolation from FACS sorted or cultured cells was performed using RNeasy micro kit or RNeasy mini kit (both Qiagen) or automated Maxwell Total RNA purification kit (Promega), all procedures included DNAse I digestion. Procedures were followed as described in the kit protocols.
RNA-sequencing and analysis. Total RNA from the FACS sorted or cell cultured treated samples was subjected to oligo (dT) capture and enrichment, and the resulting mRNA fraction was used to construct complementary DNA libraries. Transcriptome sequencing (RNA-seq) was performed on the Illumina HiSeq platform using the standard protocol (TruSeq Stranded Total RNA Library, Illumina) that generated approximately 30 million reads of 50 base-pair per sample. FACS sorted experiments for GFP+ and GFP− cells were performed using 6 replicates each from 2 different clones. The RNA-seq reads were then mapped to the human genome (NCBI build 37) by using GSNAP (Wu T D, Nacu S. Bioinformatics (Oxford, England). 2010; 26(7):873-81.). Comparison was done between 12 samples of GFP+ and GFP− samples from two clones. TGFBR2 inhibitor treated hPSC-EC samples were mapped to the human genome (hg19/Refseq) using STAR (Dobin A, Davis Calif., Schlesinger F, Drenkow J, Zaleski C, Jha S, et al. Bioinformatics (Oxford, England). 2013; 29(1):15-21.) and counting was performed using union mode of HtSeq (Anders S, Pyl P T, Huber W. Bioinformatics (Oxford, England). 2015; 31(2):166-9.). Differential expression was performed using Deseq2 (Dobin A, Davis C A, Schlesinger F, Drenkow J, Zaleski C, Jha S, et al. Bioinformatics (Oxford, England). 2013; 29(1):15-21.). Gene set enrichment analysis was performed using GSEA (Subramanian A, Tamayo P, Mootha V K, Mukherjee S, Ebert B L, Gillette M A, et al. Proceedings of the National Academy of Sciences of the United States of America. 2005; 102(43):15545-50.) using Hallmarks MsigDb database (Liberzon A, Birger C, Thorvaldsdottir H, Ghandi M, Mesirov J P, Tamayo P. Cell systems. 2015; 1(6):417-25.) using weighted p2 analysis, following default conditions with ignoring gene sets smaller than 15 and larger than 5000 genes.

[3] = system: CLDN5 transcriptional reporter (CLDN5-P2A-GFP) in hPSC-EC; assay: CLDN5-GFP reporter, percentage of GFP+ cells by FACS; type: cell-based, human
Method: Fluorescence activated cell sorting and analysis. Human PSC-EC were dissociated from plates by Accutase (StemCell Technologies) and filtered before sorting with 30 μm filters (Miltenyi Biotec). Dissociated cells were kept in full media during sorting and sorted in cooled collection tubes with complete EC media supplemented with 20% FBS and 25 mM HEPES. Sorting was performed with BD FACS ARIA III (BD Biosciences) using 4-way purity precision mode. FACS plots were generated by Flowjo_V10 software. In case of RNA-seq minimum of 100,000 cells was sorted. After sorting, cells were spun down (610 g, 10 min) and lysed in 650 μL RLT lysis buffer (Qiagen)+β-mercaptoethanol (1%) and subsequently vortexed for 1 min at room temperature and snap frozen. In case of mass spectrometry analysis minimum of 10^6 cells was sorted, cells were washed with PBS^−(Life Technologies), spun down (110 g, 3 min), PBS was removed and cell pellets snap frozen.
Compound library screening with fluorescence activated cell readout. Compounds were plated in replicate plates, and each plate had DMSO treated controls. ECs (10,000 cells per well) were seeded on fibronectin coated plates in full media. Cells were treated 2 days after seeding and the FACS measurement using MACS quant analyzer 10 (Miltenyi biotec) was performed. Screen data was analyzed in Flowjo_V10 software.

[4] = RNA-seq 8 h and 48 h after treatment

T1 sequence (P37173 23-567): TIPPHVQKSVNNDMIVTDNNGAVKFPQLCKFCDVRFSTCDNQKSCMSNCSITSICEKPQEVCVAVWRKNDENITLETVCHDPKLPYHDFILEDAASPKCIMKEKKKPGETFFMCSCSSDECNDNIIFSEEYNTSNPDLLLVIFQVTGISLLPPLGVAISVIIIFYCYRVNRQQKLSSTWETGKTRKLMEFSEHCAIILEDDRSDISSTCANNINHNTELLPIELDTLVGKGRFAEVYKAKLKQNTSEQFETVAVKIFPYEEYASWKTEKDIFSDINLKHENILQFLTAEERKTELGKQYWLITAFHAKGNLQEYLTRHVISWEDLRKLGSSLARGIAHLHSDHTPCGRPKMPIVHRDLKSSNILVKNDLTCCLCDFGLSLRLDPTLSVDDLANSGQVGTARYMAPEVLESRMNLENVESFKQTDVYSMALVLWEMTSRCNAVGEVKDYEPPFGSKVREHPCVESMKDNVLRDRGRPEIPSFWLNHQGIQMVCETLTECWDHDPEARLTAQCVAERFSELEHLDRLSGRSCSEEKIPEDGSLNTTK
T2 sequence (O00238 14-502): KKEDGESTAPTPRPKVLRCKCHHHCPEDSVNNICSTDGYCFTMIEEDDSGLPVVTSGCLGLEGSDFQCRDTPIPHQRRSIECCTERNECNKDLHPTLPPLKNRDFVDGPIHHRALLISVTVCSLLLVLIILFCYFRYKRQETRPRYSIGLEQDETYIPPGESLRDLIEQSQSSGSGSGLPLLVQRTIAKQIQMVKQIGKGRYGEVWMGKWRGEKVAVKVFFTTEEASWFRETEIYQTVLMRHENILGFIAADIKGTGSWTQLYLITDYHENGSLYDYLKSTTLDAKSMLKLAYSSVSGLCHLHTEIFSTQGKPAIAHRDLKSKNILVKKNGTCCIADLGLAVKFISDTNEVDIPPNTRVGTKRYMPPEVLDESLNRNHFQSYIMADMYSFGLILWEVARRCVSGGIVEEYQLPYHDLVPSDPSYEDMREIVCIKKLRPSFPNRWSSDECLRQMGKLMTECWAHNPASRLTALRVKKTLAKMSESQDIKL

Kd (inhibitory activities) for TGFBR2 (TGFBR2 [1]): nanomolar inhibitory activities
inhibitory activity on TGFBR2, large kinase panel (TGFBR2 [2]): strong inhibitory activity
inhibition activity on BMPR1B, large kinase panel (BMPR1B): weaker inhibition activity
SMILES: O=C(NC1CCOCC1)c1ccc(-c2cc(-c3c[nH]nc3-c3ccccn3)ccn2)cc1 [GW788388, 4-[4-[3-(2-Pyridinyl)-1H-pyrazol-4-yl]-2-pyridinyl]-N-(tetrahydro-2H-pyran-4-yl)-benzamide]
effect on EC barrier in co-application with VEGFA (functional barrier assays) (hPSC-ECs (GFP+ cells); VEGFA 50 ng/mL): prevented barrier disruption with VEGFA

Kd (inhibitory activities) for TGFBR2 (TGFBR2 [1]): nanomolar inhibitory activities
inhibitory activity on TGFBR2, large kinase panel (TGFBR2 [2]): strong inhibitory activity
expression of Wnt target genes (AXIN2, APCDD1, TNFRSF19) and receptors for Wnt FZD4 and LRP1 (hPSC-EC; [4]): upregulation
inhibition activity on BMPR1B, large kinase panel (BMPR1B): weaker inhibition activity
SMILES: Cc1cccc(-c2n[nH]cc2-c2ccc3ncccc3n2)n1 [Repsox, 2-[3-(6-Methyl-2-pyridinyl)-1H-pyrazol-4-yl]-1,5-naphthyridine]
rescue of TBI, impedance real time measurement (hPSC-ECs (GFP+ cells); 10 μM, co-treatment with 50 ng/mL VEGFA, GFP+ cells): rescues the loss-of TBI induced by VEGFA treatment
effect on EC barrier in co-application with VEGFA (functional barrier assays) (hPSC-ECs (GFP+ cells); VEGFA 50 ng/mL): strong EC barrier promoting effect
BMP signaling (ENG, LRG1 and BMPR2) (hPSC-EC; [4]): potently inhibited
CLDN5 expression (hPSC-EC; [4]): strong upregulation
GSK3ß expression (hPSC-EC; [4]): downregulation
PLVAP expression (hPSC-EC; [4]): downregulation
RHOB expression (hPSC-EC; [4]): Downregulation
SMAD6 (TGFß antagonist) expression (hPSC-EC; [4]): inducing
expression of KDR (VEGFR2) and PECAM1 (CD31) (hPSC-EC; [4]): did not change
expression of antagonists of BMP signaling (BMPER, GREM2 and GDF6) (hPSC-EC; [4]): Most striking upregulation
expression of inflammation genes (NFATC2, JAK1, JAK3 and ICAM1) (hPSC-EC; [4]): downregulate
expression of other tight junctions or regulators of tight junctions (MARVELD3, GJA4, GJA5, IFITM3) (hPSC-EC; [4]): Upregulation
TGFß pathway regulation (hPSC-EC; RNA-seq / GSEA Hallmarks MsigDB): most potent compound
expression of SOX17 and KLF4 (hPSC-EC; RNA-seq after treatment): Induction
VEGFR1 (FLT1) expression (hPSC-EC; RNA-seq, data not shown): upregulated
expression of angiogenesis related genes (ESM1, ANGPTL4 and PPARGC1A) (hPSC-EC; RNA-seq, data not shown): most potent compound in downregulating

SMILES: NC(=O)c1ccc(-c2nc(-c3ccc4c(c3)OCO4)c(-c3ccccn3)[nH]2)cc1 [SB431542, 4-(4-Benzo[1,3]dioxol-5-yl-5-pyridin-2-yl-1H-imidazol-2-yl)-benzamide]
effect on EC barrier in co-application with VEGFA (functional barrier assays) (hPSC-ECs (GFP+ cells); VEGFA 50 ng/mL): no effect

SMILES: Cc1cccc(-c2[nH]c(C(C)(C)C)nc2-c2ccc3c(c2)OCO3)n1 [SB505124]
effect on EC barrier in co-application with VEGFA (functional barrier assays) (hPSC-ECs (GFP+ cells); VEGFA 50 ng/mL): partial effect

SMILES: CCN(CC)CCNC(=O)c1c(C)[nH]c(/C=C2\C(=O)Nc3ccc(F)cc32)c1C [SU11248]
resistance to barrier breakdown by VEGFA, ECIS (hPSC-ECs (GFP+ cells); cells treated with 5 μM SU11248, VEGFA 50 ng/mL): resistant to barrier breakdown by VEGFA
% of GFP+ cells ([3]; 5 μM SU11248 for 2 days, FACS): 99%
change in GFP+ (reporter gene positive) cells upon treatment ([3]; FACS 2 days after treatment, VEGFA 50 ng/mL): increase of reporter gene positive cells
